Measurements reported in patent US20230064983A1 (priority 2020, published 2023).
pIC50: −log10 of the molar value. Read-outs that look alike come from different tables or passages of the source.

How the values were obtained:
[1] = target: T1, EGFR with insertion SVD between D770 and N771 (mutEGFR D770_N771insSVD) (Homo sapiens, UniProt P00533, DUP768-770); assay: Exon20-Mutant-EGFR(D770_N771insSVD) kinase assay (TR-FRET); assay type: biochemical; details: 2 mM ATP, Table 2
T1 construct: amino acids R669 to A1210; made in house; host or cells: Sf9 insect cells (baculovirus)

[2] = target: Ba/F3-EGFR-D770_N771insSVD cells (Homo sapiens, UniProt P00533, DUP768-770, cells depend on it); assay: Ba/F3 cell survival assay, EGFR D770_N771insSVD; assay type: cell-based; details: Cell Titer-Glo, 48 h, without IL-3; Table 4; read-out: BA/F3 (insSVD) IC50
Ba/F3-EGFR-WT cells = Ba/F3-EGFR-WT cells (Homo sapiens, UniProt P00533); assay: Ba/F3 cell survival assay, wild type EGFR; assay type: cell-based; details: Cell Titer-Glo, 48 h, with 10 ng/mL EGF; Table 4; read-out: BA/F3 (wild type) IC50
Bub1 = target: T2, Bub1 (Homo sapiens, UniProt O43683); assay: Bub1 high ATP kinase assay (TR-FRET); assay type: biochemical; details: 2 mM ATP, Table 3
T2 construct: catalytic domain of human Bub1 (amino acids 704-1085); His6 (N); made in house; host or cells: insect cells (Hi5)
Summary of the method: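 Enzyme was His6-tagged human Bub1 catalytic domain (aa 704-1085) from Hi5 insect cells, typically about 200 ng/ml, with a biotinylated peptide substrate at high ATP. Reaction ran 60 min at 22 °C, then was stopped with EDTA. Phosphopeptide was detected by TR-FRET (anti-phosphoserine antibody, Eu-labelled anti-mouse IgG, streptavidin-XL665), read as the 665/620 nm emission ratio.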

[3] = Bub1 high ATP (2 mM) IC50, TR-FRET

Ba/F3-EGFR-WT cells, sequence (P00533 whole entry, looked up, change not shown): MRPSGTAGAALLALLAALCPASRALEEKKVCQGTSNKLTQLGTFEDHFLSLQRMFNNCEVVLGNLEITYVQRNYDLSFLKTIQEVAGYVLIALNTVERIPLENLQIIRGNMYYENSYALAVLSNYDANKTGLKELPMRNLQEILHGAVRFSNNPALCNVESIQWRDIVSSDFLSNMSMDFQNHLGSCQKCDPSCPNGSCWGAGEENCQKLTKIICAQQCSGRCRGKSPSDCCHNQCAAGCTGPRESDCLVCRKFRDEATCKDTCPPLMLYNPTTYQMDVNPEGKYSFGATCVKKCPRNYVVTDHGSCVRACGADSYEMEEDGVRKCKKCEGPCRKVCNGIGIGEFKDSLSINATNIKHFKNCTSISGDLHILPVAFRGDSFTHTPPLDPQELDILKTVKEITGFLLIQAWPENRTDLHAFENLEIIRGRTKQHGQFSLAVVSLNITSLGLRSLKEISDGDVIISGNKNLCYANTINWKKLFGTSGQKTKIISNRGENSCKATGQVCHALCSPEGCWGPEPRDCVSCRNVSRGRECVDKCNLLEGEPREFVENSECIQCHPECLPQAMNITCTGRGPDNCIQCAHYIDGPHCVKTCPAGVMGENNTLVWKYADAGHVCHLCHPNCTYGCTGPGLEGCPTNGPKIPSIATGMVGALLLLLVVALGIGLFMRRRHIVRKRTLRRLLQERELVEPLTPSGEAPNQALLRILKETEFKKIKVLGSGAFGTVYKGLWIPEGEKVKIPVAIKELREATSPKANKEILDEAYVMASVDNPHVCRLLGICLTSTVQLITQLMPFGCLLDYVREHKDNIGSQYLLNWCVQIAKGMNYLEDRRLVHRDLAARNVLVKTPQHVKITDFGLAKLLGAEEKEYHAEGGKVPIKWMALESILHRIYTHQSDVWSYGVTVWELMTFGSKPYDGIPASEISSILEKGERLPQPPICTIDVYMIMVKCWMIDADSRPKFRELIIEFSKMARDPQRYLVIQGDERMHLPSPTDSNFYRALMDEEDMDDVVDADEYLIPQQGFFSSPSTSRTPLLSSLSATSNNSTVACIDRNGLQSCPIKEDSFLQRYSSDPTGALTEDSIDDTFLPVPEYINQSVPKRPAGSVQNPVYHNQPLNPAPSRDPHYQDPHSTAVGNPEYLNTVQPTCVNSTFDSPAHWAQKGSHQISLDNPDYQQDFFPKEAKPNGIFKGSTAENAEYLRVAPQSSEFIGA
Ba/F3-EGFR-D770_N771insSVD cells, sequence (P00533 with tags, fused parts or gaps DUP768-770): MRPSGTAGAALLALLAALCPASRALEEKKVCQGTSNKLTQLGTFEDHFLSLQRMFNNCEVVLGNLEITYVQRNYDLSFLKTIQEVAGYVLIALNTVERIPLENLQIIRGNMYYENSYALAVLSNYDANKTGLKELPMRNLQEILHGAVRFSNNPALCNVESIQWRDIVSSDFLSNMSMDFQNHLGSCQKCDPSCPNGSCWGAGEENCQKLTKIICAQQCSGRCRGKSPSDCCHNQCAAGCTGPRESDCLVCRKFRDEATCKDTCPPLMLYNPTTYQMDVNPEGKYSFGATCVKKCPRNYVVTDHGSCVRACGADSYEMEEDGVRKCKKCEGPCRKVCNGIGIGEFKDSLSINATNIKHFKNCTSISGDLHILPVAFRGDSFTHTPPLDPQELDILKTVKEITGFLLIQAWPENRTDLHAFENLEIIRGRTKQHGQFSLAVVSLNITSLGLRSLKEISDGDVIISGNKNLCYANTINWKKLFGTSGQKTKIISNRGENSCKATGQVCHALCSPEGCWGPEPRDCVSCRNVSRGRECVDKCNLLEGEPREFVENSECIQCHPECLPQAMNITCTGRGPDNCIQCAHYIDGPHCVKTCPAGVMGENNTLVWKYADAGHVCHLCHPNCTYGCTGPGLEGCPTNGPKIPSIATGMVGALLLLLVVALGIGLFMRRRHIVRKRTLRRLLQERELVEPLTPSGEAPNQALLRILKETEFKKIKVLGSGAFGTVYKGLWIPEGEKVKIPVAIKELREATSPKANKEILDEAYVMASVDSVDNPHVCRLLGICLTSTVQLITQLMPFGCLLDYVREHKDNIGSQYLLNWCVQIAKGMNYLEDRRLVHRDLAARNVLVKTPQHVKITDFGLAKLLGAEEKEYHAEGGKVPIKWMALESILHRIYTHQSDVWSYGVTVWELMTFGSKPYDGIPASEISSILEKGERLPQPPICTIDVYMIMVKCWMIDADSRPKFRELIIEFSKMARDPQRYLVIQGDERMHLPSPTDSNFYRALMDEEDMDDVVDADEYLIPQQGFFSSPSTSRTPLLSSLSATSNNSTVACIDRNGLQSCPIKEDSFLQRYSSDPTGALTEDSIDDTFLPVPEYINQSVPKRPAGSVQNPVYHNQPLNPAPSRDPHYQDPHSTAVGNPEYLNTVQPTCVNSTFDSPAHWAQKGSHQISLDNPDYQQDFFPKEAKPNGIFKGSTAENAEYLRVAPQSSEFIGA
T2 sequence (O43683 704-1085): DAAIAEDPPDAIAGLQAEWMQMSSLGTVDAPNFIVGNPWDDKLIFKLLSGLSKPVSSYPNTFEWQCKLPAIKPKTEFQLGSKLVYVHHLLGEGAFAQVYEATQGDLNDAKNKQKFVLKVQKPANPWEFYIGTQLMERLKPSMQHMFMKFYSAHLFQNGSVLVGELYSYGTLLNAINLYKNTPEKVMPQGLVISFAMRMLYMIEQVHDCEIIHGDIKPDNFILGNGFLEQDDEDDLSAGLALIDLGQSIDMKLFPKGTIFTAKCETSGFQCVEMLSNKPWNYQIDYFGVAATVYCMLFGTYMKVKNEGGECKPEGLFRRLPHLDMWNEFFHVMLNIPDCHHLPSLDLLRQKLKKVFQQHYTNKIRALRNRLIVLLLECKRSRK
T1 sequence (P00533 other isoform, or with tags, fused parts or gaps DUP768-770): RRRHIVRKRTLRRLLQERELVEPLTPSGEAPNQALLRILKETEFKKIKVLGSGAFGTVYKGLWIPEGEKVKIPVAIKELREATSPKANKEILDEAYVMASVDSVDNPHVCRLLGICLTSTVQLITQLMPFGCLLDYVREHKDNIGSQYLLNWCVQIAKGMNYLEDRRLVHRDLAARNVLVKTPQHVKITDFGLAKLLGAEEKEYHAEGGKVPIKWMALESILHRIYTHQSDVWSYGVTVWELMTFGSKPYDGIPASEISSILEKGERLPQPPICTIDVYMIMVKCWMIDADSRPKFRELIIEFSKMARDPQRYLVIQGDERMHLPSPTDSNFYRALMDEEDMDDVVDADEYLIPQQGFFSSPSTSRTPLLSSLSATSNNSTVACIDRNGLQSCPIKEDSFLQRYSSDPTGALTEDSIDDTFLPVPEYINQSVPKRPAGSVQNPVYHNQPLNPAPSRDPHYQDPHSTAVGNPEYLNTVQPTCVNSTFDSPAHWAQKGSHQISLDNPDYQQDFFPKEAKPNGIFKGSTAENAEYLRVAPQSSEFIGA

COCC(C)Oc1cnccc1-c1[nH]c2c(c1Nc1cccc(Cl)c1OC)C(=O)N[C@@H]1CCC[C@H]21 (stereo partly drawn) [Example 49, (5aR,8aS)-3-(3-chloro-2-methoxyanilino)-2-{3-[(1-methoxypropan-2-yl)oxy]-4-pyridyl}-5,5a,6,7,8,8a-hexahydrocyclopenta[b]pyrrolo[2,3-d]pyridin-4(1)-one]
mutEGFR (D770_N771insSVD) kinase assay IC50 [1]: 275 pM | GI50 [2]: 33.1 nM | GI50 (Ba/F3-EGFR-WT cells): 291 nM | pIC50 (Bub1; [3]): 4.88

COc1c(Cl)cccc1Nc1c(-c2ccncc2OC[C@@H]2CN(C)CCO2)[nH]c2c1C(=O)N[C@@H]1CCC[C@H]21 [Example 64, (5aR,8aS)-3-(3-chloro-2-methoxyanilino)-2-(3-{[(2S)-4-methylmorpholin-2-yl]methoxy}pyridin-4-yl)-5,5a,6,7,8,8a-hexahydrocyclopenta[b]pyrrolo[2,3-d]pyridin-4(1H)-one]
mutEGFR (D770_N771insSVD) kinase assay IC50 [1]: 361 pM | GI50 [2]: 47.6 nM | GI50 (Ba/F3-EGFR-WT cells): 643 nM | pIC50 (Bub1; [3]): < 4.70

COc1c(Cl)cccc1Nc1c(-c2ccncc2OCC2OCCC2(F)F)[nH]c2c1C(=O)N[C@H](C)C2 (single isomer, unassigned) [Example 72]
mutEGFR (D770_N771insSVD) kinase assay IC50 [1]: 151 pM | GI50 [2]: 36.6 nM | GI50 (Ba/F3-EGFR-WT cells): 628 nM | pIC50 (Bub1; [3]): 5.15

COc1c(Cl)cccc1Nc1c(-c2ccncc2OC[C@@H]2CCCO2)[nH]c2c1C(=O)NCC2CCO (single isomer, unassigned) [Example 17]
mutEGFR (D770_N771insSVD) kinase assay IC50 [1]: 238 pM | GI50 [2]: 230 nM | GI50 (Ba/F3-EGFR-WT cells): 1580 nM | pIC50 (Bub1; [3]): < 4.70

COc1c(Cl)cccc1Nc1c(-c2ccncc2OC[C@@H]2CCCO2)[nH]c2c1C(=O)NCC2CC=C(F)F (single isomer, unassigned) [Example 101]
mutEGFR (D770_N771insSVD) kinase assay IC50 [1]: 553 pM | GI50 [2]: 42.1 nM | GI50 (Ba/F3-EGFR-WT cells): 603 nM | pIC50 (Bub1; [3]): < 4.70

COc1c(Cl)cccc1Nc1c(-c2ccncc2OCC(C)(C)OC)[nH]c2c1C(=O)NCC2CCO (single isomer, unassigned) [Example 15, 3-(3-chloro-2-methoxyanilino)-7-(2-hydroxyethyl)-2-[3-(2-methoxy-2-methylpropoxy)pyridin-4-yl]-1,5,6,7-tetrahydro-4H-pyrrolo[3,2-c]pyridin-4-one]
mutEGFR (D770_N771insSVD) kinase assay IC50 [1]: 158 pM | GI50 [2]: 192 nM | GI50 (Ba/F3-EGFR-WT cells): 895 nM | pIC50 (Bub1; [3]): 5.86

COc1c(Cl)cccc1Nc1c(-c2ccncc2OC[C@@H]2COCCN2C)[nH]c2c1C(=O)NCC2CCF (single isomer, unassigned) [Example 90]
mutEGFR (D770_N771insSVD) kinase assay IC50 [1]: 499 pM | GI50 [2]: 83.8 nM | GI50 (Ba/F3-EGFR-WT cells): 1170 nM | pIC50 (Bub1; [3]): 5.41

COc1c(Cl)cccc1Nc1c(-c2ccncc2OCC2CCCCO2)[nH]c2c1C(=O)N[C@H](C)C2 (single isomer, unassigned) [Example 29]
mutEGFR (D770_N771insSVD) kinase assay IC50 [1]: 176 pM | GI50 [2]: 11 nM | GI50 (Ba/F3-EGFR-WT cells): 288 nM | pIC50 (Bub1; [3]): 5.62

COc1c(Cl)cccc1Nc1c(-c2ccncc2OCC2(C)CCO2)[nH]c2c1C(=O)NCC2CCO (single isomer, unassigned) [Example 23, 3-(3-chloro-2-methoxyanilino)-7-(2-hydroxyethyl)-2-{3-[(2-methyloxetan-2-yl)methoxy]pyridin-4-yl}-1,5,6,7-tetrahydro-4H-pyrrolo[3,2-c]pyridin-4-one]
mutEGFR (D770_N771insSVD) kinase assay IC50 [1]: 796 pM | GI50 [2]: 920 nM | GI50 (Ba/F3-EGFR-WT cells): 7380 nM | pIC50 (Bub1; [3]): < 4.70

COCC(C)Oc1cnccc1-c1[nH]c2c(c1Nc1cccc(Cl)c1OC)C(=O)N[C@H](C)C2 (mixture of isomers) [Example 41, (6R)-3-(3-chloro-2-methoxy-anilino)-2-{3-[(1-methoxypropan-2-yl)oxy]-4-pyridyl}-6-methyl-1,5,6,7-tetrahydropyrrolo[3,2-c]pyridin-4-one]
mutEGFR (D770_N771insSVD) kinase assay IC50 [1]: 178 pM | GI50 [2]: 39.8 nM | GI50 (Ba/F3-EGFR-WT cells): 479 nM | pIC50 (Bub1; [3]): 4.77

Cc1c(Cl)cccc1Nc1c(-c2ccncc2OC[C@@H]2CCCO2)[nH]c2c1C(=O)NCC2C (mixture of isomers) [Example 58, 3-(3-chloro-2-methyl-anilino)-7-methyl-2-(3-{[(2S)-oxolan-2-yl]methoxy}pyridin-4-yl)-1,5,6,7-tetrahydropyrrolo[3,2-c]pyridin-4-one]
mutEGFR (D770_N771insSVD) kinase assay IC50 [1]: 148 pM | GI50 [2]: 72.9 nM | GI50 (Ba/F3-EGFR-WT cells): 1250 nM | pIC50 (Bub1; [3]): 5.47

CCc1c(Cl)cccc1Nc1c(-c2ccncc2OC[C@@H]2CCCO2)[nH]c2c1C(=O)N[C@H](C)C2 [Example 109, (6R)-3-(3-chloro-2-ethylanilino)-6-methyl-2-(3-{[(2S)-oxolan-2-yl]methoxy}pyridin-4-yl)-1,5,6,7-tetrahydro-4H-pyrrolo[3,2-c]pyridin-4-one]
mutEGFR (D770_N771insSVD) kinase assay IC50 [1]: 526 pM | GI50 [2]: 66.9 nM | GI50 (Ba/F3-EGFR-WT cells): 944 nM | pIC50 (Bub1; [3]): 5.44

COc1c(F)cccc1Nc1c(-c2ccncc2OC[C@@H]2CCCO2)[nH]c2c1C(=O)NC(C)C2 (single isomer, unassigned) [Example 9]
mutEGFR (D770_N771insSVD) kinase assay IC50 [1]: 101 pM | GI50 [2]: 104 nM | GI50 (Ba/F3-EGFR-WT cells): 644 nM | pIC50 (Bub1; [3]): 5.08

COc1c(Cl)cccc1Nc1c(-c2ccncc2OCC2COC(C)(C)CO2)[nH]c2c1C(=O)NC1(CC1)C2 (single isomer, unassigned) [Example 133, 3′-(3-chloro-2-methoxyanilino)-2′-(3-{[5,5-dimethyl-1,4-dioxan-2-yl]methoxy}pyridin-4-yl)-1′,7′-dihydrospiro[cyclopropane-1,6′-pyrrolo[3,2-c]pyridin]-4′(5′H)-one]
mutEGFR (D770_N771insSVD) kinase assay IC50 [1]: 341 pM | GI50 [2]: 22.2 nM | GI50 (Ba/F3-EGFR-WT cells): 484 nM | pIC50 (Bub1; [3]): 5.78

Cc1c(Cl)cccc1Nc1c(-c2ccncc2OCC2COCCO2)[nH]c2c1C(=O)N[C@H](C)C2 (stereo partly drawn) [Example 102, (6R)-3-(3-chloro-2-methylanilino)-2-{3-[(1,4-dioxan-2-yl)methoxy]pyridin-4-yl}-6-methyl-1,5,6,7-tetrahydro-4H-pyrrolo[3,2-c]pyridin-4-one]
mutEGFR (D770_N771insSVD) kinase assay IC50 [1]: 121 pM | GI50 [2]: 38.7 nM | GI50 (Ba/F3-EGFR-WT cells): 869 nM | pIC50 (Bub1; [3]): 5.99

COc1c(Cl)cccc1Nc1c(-c2ccncc2OC[C@@H]2CCO2)[nH]c2c1C(=O)N[C@H](C)C2 [Example 6, (6R)-3-(3-chloro-2-methoxyanilino)-6-methyl-2-(3-{[(2S)-oxetan-2-yl]methoxy}pyridin-4-yl)-1,5,6,7-tetrahydro-4H-pyrrolo[3,2-c]pyridin-4-one]
mutEGFR (D770_N771insSVD) kinase assay IC50 [1]: 217 pM | GI50 [2]: 86.4 nM | GI50 (Ba/F3-EGFR-WT cells): 623 nM | pIC50 (Bub1; [3]): 4.99

COCC(C)Oc1cnccc1-c1[nH]c2c(c1Nc1cccc(Cl)c1C)C(=O)N[C@H](C)C2 (stereo partly drawn) [Example 105, (6R)-3-(3-chloro-2-methylanilino)-2-{3-[(1-methoxypropan-2-yl)oxy]pyridin-4-yl}-6-methyl-1,5,6,7-tetrahydro-4H-pyrrolo[3,2-c]pyridin-4-one]
mutEGFR (D770_N771insSVD) kinase assay IC50 [1]: 324 pM | GI50 [2]: 44.7 nM | GI50 (Ba/F3-EGFR-WT cells): 884 nM | pIC50 (Bub1; [3]): 5.43

COc1c(Cl)cccc1Nc1c(-c2ccncc2OCC2COC(C)(C)CO2)[nH]c2c1C(=O)NCC2C (single isomer, unassigned) [Example 96, 3-(3-chloro-2-methoxy-anilino)-2-[3-[(5,5-dimethyl-1,4-dioxan-2-yl)methoxy]-4-pyridyl]-7-methyl-1,5,6,7-tetrahydropyrrolo[3,2-c]pyridin-4-one]
mutEGFR (D770_N771insSVD) kinase assay IC50 [1]: 985 pM | GI50 [2]: 381 nM | GI50 (Ba/F3-EGFR-WT cells): 3430 nM | pIC50 (Bub1; read-out: Bub1 high ATP (2 mM) IC50, TR-FRET): < 4.70

Cc1c(Cl)cccc1Nc1c(-c2ccncc2OC[C@@H]2CN(C)CCO2)[nH]c2c1C(=O)N[C@H](C)C2 [Example 107, (6R)-3-(3-chloro-2-methylanilino)-6-methyl-2-(3-{[(2S)-4-methylmorpholin-2-yl]methoxy}pyridin-4-yl)-1,5,6,7-tetrahydro-4H-pyrrolo[3,2-c]pyridin-4-one]
mutEGFR (D770_N771insSVD) kinase assay IC50 [1]: 115 pM | GI50 [2]: 25 nM | GI50 (Ba/F3-EGFR-WT cells): 546 nM | pIC50 (Bub1; [3]): < 4.70

COc1c(Cl)cccc1Nc1c(-c2ccncc2OC[C@@H]2CCCO2)[nH]c2c1C(=O)N[C@H]1CCC[C@@H]21 [Example 57, (5aS,8aR)-3-(3-chloro-2-methoxyanilino)-2-(3-{[(2S)-oxolan-2-yl]methoxy}pyridin-4-yl)-5,5a,6,7,8,8a-hexahydrocyclopenta[b]pyrrolo[2,3-d]pyridin-4(1)-one]
mutEGFR (D770_N771insSVD) kinase assay IC50 [1]: 246 pM | GI50 [2]: 195 nM | GI50 (Ba/F3-EGFR-WT cells): 1710 nM | pIC50 (Bub1; [3]): 6.55

Cc1c(Cl)cccc1Nc1c(-c2ccncc2OCC2COCCO2)[nH]c2c1C(=O)NCC2C (stereo not drawn) [Example 66, 3-(3-chloro-2-methyl-anilino)-2-[3-(1,4-dioxan-2-ylmethoxy)-4-pyridyl]-7-methyl-1,5,6,7-tetrahydropyrrolo[3,2-c]pyridin-4-one]
mutEGFR (D770_N771insSVD) kinase assay IC50 [1]: 145 pM | GI50 [2]: 42.8 nM | GI50 (Ba/F3-EGFR-WT cells): 766 nM | pIC50 (Bub1; [3]): 5.76
